Key:
[1] = system: farnesyl-modification of Ras protein in NIH3T3 cells transformed by activated ras gene; assay: Inhibitory activities against farnesyl-modification of Ras protein in NIH3T3 cells transformed by activated ras gene; type: cell-based; conditions: Mus musculus, 24 hours, proportion of non-farnesyl-modified Ras protein by densitometer, read-out: 50% inhibitory concentrations against farnesyl-modification of Ras protein, IC50
Method: PHARMACOLOGICAL TEST EXAMPLE 2
(Inhibitory Activities Against Farnesyl-Modification of Ras Protein)
Using the compounds of the present invention, inhibitory activities against farnesyl-modification of Ras protein in NIH3T3 cells transformed by activated ras gene, were measured.
The NIH3T3 cells transformed by activated ras gene, were seeded on a culture plate and cultured for 3 days. Then, a compound of the present invention in a predetermined concentration was added to the culture. In accordance with the method disclosed in J. Biol. Chem., vol. 268, p. 18415 (1993), the cells were cultured for 24 hours and then taken off from the plate, and the cells were dissolved. After centrifugal separation for 5 minutes under 12000 g, the supernatant was used as a cell extract. The cell extract was subjected to SDS polyacrylamide gel electrophoresis to separate farnesyl-modified Ras protein and non-farnesyl-modified Ras protein. The protein on the gel was transferred onto a nitrocellulose membrane, and an anti-Ras protein antibody was reacted as a probe (primary antibody reaction). An anti-primary antibody, a peroxidase inclusion (secondary antibody), was reacted, and then Ras protein was detected by a chemical fluorescence enhancing kit. The proportion of non-farnesyl-modified Ras protein was quantified by a densitometer and taken as the inhibitory activity.
The 50% inhibitory concentrations (IC50 values) of the compounds of the present invention against farnesyl-modification of Ras protein as shown in Table

[2] = target: T1, protein-farnesyl transferase (PFT) (Rattus norvegicus, UniProt Q02293+Q04631); assay: Inhibitory activities against protein-farnesyl transferase; type: biochemical; conditions: PFT derived from rat brain; prenyl acceptor H-ras protein or biotin-added Lys-Thr-Ser-Cys-Val-Ile-Met; 37° C., 20 minutes; read-out: 50% inhibitory concentrations against PFT activities, IC50
T1 construct: PFT derived from rat brain; from tissue; host or cells: rat brain, soluble fraction (30-50% ammonium sulfate cut, Q-Sepharose fraction)
Method: Inhibitory activities against protein-farnesyl transferase
PFT was separated in such a manner that a soluble fraction of rat's brain was fractionated by means of 30%-50% saturated ammonium sulfate, further dialyzed and then subjected to column chromatography by Q-cephalose™ (manufactured by Pharmacia) (Reiss et al, Cell, vol. 62, p. 81-88 (1990)).
(2) Method for measuring PFT activities
Measurement of PFT activities was conducted by using, as a prenyl acceptor, H-ras protein or a substance that biotin was added to N-terminal of a peptide corresponding to a 7 amino acid residue at C terminal of K-rasB protein (biotin-added Lys-Thr-Ser-Cys-Val-Ile-Met) and, as a prenyl doner, [^3 H]-labeled farnesylpyrophosphate (FPP) (Reiss et al, Methods: A Companion to a Methods in Enzymology, vol. 1, No. 3, p. 241-245 (1990)). […]
The enzymatic reaction product containing H-ras protein as the prenyl acceptor, was analyzed by SDS-PAGE (sodium dodecylsulfate/polyacrylamide gel electrophoresis). […]
The measurement of PFT activities using H-ras protein as the prenyl receptor, was also analyzed by a rapid separate method. […]

Structure (SMILES) | IC50 [1] | IC50 [2]
C[C@H]([C@H](Cc1ccc(C(=O)Nc2ccccc2)o1)c1ccc([N+](=O)[O-])cc1)N(Cc1ccc2ccccc2c1)C(=O)C(O)=C(CC(=O)O)C(=O)OC(C)(C)C (racemic) [Example 25, 3-tert-butoxycarbonyl-4-hydroxy-4-[N-[(1RS,2RS)-1-methyl-2-(4-nitrophenyl)-3-{5-(phenylcarbamoyl)-2-furyl}propyl]-N-(2-naphthylmethyl)carbamoyl]-3-butenoic acid] | 21 nM | 
C=CCOC(=O)C(CC(=O)O)=C(O)C(=O)N(Cc1ccc2ccccc2c1)[C@H](C)[C@H](Cc1ccc(C(=O)Nc2ccccc2)o1)c1ccc2c(c1)OCO2 (racemic) [Example 29, 3-allyloxycarbonyl-4-hydroxy-4-[N-[(1RS,2RS)-1-methyl-2-(3,4-methylenedioxyphenyl)-3-{5-(phenylcarbamoyl)-2-furyl}propyl]-N-(2-naphthylmethyl)carbamoyl]-3-butenoic acid] | 4.7 nM | 
CC(C)OC(=O)C(CCC(=O)O)=C(O)C(=O)N(Cc1ccc2ccccc2c1)[C@H](C)[C@H](Cc1ccc(C(=O)Nc2ccccc2)o1)c1ccc([N+](=O)[O-])cc1 (racemic) [Example 30, 5-hydroxy-4-isopropoxycarbonyl-5-[N-[(1RS,2RS)-1-methyl-2-(4-nitrophenyl)-3-{5-(phenylcarbamoyl)-2-furyl}propyl]-N-(2-naphthylmethyl)carbamoyl]-4-pentenoic acid] | 21 nM | 
C[C@H]([C@H](Cc1ccc(C(=O)Nc2ccccc2)o1)c1ccc([N+](=O)[O-])cc1)N(Cc1ccc2ccccc2c1)C(=O)CC(CC(=O)O)C(=O)O (stereo partly drawn) [Example 1, N-[(1-RS,2RS)-1-methyl-2-(4-nitrophenyl)-3-{5-(phenylcarbamoyl)-2-furyl}propyl]-N-(2-naphthylmethyl)carbamoylmethylsuccinic acid] |  | 0.6 nM
C[C@H]([C@H](Cc1cccc(C(=O)Nc2ccccc2)c1)c1ccc(Cl)cc1)N(Cc1ccc2ccccc2c1)C(=O)CC(CC(=O)O)C(=O)O (stereo partly drawn) [Example 10, N-{(1RS,2RS)-2-(4-chlorophenyl)-1-methyl-3-(3-phenylcarbamoylphenyl)propyl}-N-(2-naphthylmethyl)carbamoylmethylsuccinic acid] |  | 1.8 nM

Source: US6017956A, “N,N-disubstituted amic acid derivatives” (Banyu Pharmaceutical Co., Ltd., priority 1994, dated 2000)
